Results reported in article PMC12627232 (MedComm, 2025).

How the values were obtained:
HeLa nuclear extract = assay: HDAC inhibition, HeLa nuclear extract; assay type: biochemical
Experimental: HDACs enzymatic assays were conducted according to our previous work. In detail, the HeLa nuclear extract, HDAC1 (BPS BIOSCIENCE INC, 50051), HDAC2 (BPS BIOSCIENCE Inc; 50052), HDAC3/NCOR1 complex (BPS BIOSCIENCE Inc; 50003), HDAC4 (BPS BIOSCIENCE Inc; 50004), HDAC5 (BPS BIOSCIENCE Inc; 50005), HDAC6 (BPS BIOSCIENCE Inc; 50006), HDAC7 (BPS BIOSCIENCE Inc; 50007), HDAC8 (BPS BIOSCIENCE Inc; 50008), HDAC9 (BPS BIOSCIENCE Inc; 50009), HDAC10 (BPS BIOSCIENCE Inc; 50010), or HDAC11 (BPS BIOSCIENCE Inc; 50011) was diluted to the proper concentrations according to the relative enzymatic activity and the linear range of the plate reader and mixed with different concentrations of drugs. Substrates (Boc‐Lys(acetyl)‐AMC for HeLa nuclear extract, Ac‐Leu‐Gly‐Lys (Tfa)‐AMC for HDAC4, HDAC5, HDAC6, HDAC7, HDAC9, HDAC10, and HDAC11, Boc‐Lys(triflouroacetyl)‐AMC for HDAC8 and Ac‐Leu‐Gly‐Lys(acetyl)‐AMC for HDAC1, HDAC2, HDAC3) were added to the mixture. The blank group was set to no enzyme or drug but contains substrates and the control group was set to no drug but contains substrates and enzymes to each 96‐well plate. After 30 min of incubation at 37°C, the mixture was terminated with 1 mg/mL trypsin and 3 µM TSA. After another 30 min, the fluorescence intensity was measured using a Varioskan plate reader at 360/460 nm. […] The inhibition curves and IC50 values were simulated and calculated using the log(inhibitor) versus response (three parameters) mode in GraphPad Prism software.

HDAC1 = biological target: T1, HDAC1 (Homo sapiens, UniProt Q13547); assay: HDACs enzymatic assay HDAC1; assay type: biochemical
T1 construct: purchased BPS BIOSCIENCE INC 50051
Experimental: (§1) HDACs enzymatic assays were conducted according to our previous work. […] Substrates (Boc‐Lys(acetyl)‐AMC for HeLa nuclear extract, Ac‐Leu‐Gly‐Lys (Tfa)‐AMC for HDAC4, HDAC5, HDAC6, HDAC7, HDAC9, HDAC10, and HDAC11, Boc‐Lys(triflouroacetyl)‐AMC for HDAC8 and Ac‐Leu‐Gly‐Lys(acetyl)‐AMC for HDAC1, HDAC2, HDAC3) were added to the mixture. The blank group was set to no enzyme or drug but contains substrates and the control group was set to no drug but contains substrates and enzymes to each 96‐well plate. After 30 min of incubation at 37°C, the mixture was terminated with 1 mg/mL trypsin and 3 µM TSA. After another 30 min, the fluorescence intensity was measured using a Varioskan plate reader at 360/460 nm. […] The inhibition curves and IC50 values were simulated and calculated using the log(inhibitor) versus response (three parameters) mode in GraphPad Prism software.

HDAC6 = biological target: T2, HDAC6 (Homo sapiens, UniProt Q9UBN7); assay: HDACs enzymatic assay HDAC6; assay type: biochemical; conditions: Class IIb
T2 construct: purchased BPS BIOSCIENCE Inc 50006
Experimental: as §1

HDAC11 = biological target: T3, HDAC11 (Homo sapiens, UniProt Q96DB2); assay: HDACs enzymatic assay HDAC11; assay type: biochemical; conditions: Class IV
T3 construct: purchased BPS BIOSCIENCE Inc 50011
Experimental: as §1

MDA-MB-231 cells [1] = assay: EdU assay; assay type: cell-based, human; conditions: MDA-MB-231, 2 µM, 24 h
Experimental: The EdU assay is performed by BeyoClick EdU kit. MDA‐MB‐231 cells were cultured in a 6‐well plate overnight. […] Following labeling, cells are fixed with 4% PFA for 15 min, washed three times with wash buffer, and permeabilized using 0.3% Triton X‐100 for 15 min. After another wash, endogenous peroxidases are blocked for 20 min. For detection, a click reaction mix (containing Biotin Azide, CuSO4, and click additive) is added and incubated for 30 min. After washing, streptavidin–HRP is applied and reacted for 30 min, followed by 5 min DAB substrate incubation. Finally, cells are washed, optionally counterstained, and imaged under a microscope.

MDA-MB-231 cells [2] = assay: TUNEL assay; assay type: cell-based, human; conditions: MDA-MB-231, 5 µM, 24 h
Experimental: The TUNEL assay was performed with the one‐step TUNEL apoptosis kit (MeilunBio) according to the manual from the manufacturer. Briefly, cells (5 × 10^5 cells per plate) were seeded in confocal dishes and incubated with drugs for 24 h. The medium was removed, and cells were fixed with 4% polyoxymethylene solution for 30 min. Subsequently, cells were treated with 20 µg/mL protease K for 5 min and TUNEL working solution for 1 h at 37°C. Eventually, cells were captured with a Leica TCS SP8 super‐resolution laser scanning confocal microscope.

[3] = system: immune cells of MC38 syngeneic model; assay: Flow cytometry of tumor-infiltrating and spleen immune cells, MC38 model; assay type: in vivo, C57BL/6J mice
Experimental: After 14 days, the tumors and spleens were split, and cells were isolated to analyze the change in cancer immunity. For TILs, the tumors were incubated with the tumor digestion fluid (collagenase and hyaluronic acid included) and then filtered with a 200‐gauge mesh and centrifuged (100×g, 1 min). The supernatant was centrifuged (400×g, 5 min) and precipitated cells were purified by 40% percoll solution followed by RBC lysis and washing. For splenocytes, the spleen was passed through a 200‐gauge mesh, and splenocytes were collected after RBC lysis and washing.
The prepared cell suspensions were incubated with rat serum at room temperature for 30 min to block the FC‐receptor and incubated with fluorescent antibodies at 4°C for 1 h. For Foxp3 staining, Foxp3/Transcription Factor Staining Buffer Set (eBioscience; #00‐5523‐00) was used. For intracellular cytokines staining, cells were pre‐stimulated with 1 µg/mL ionomycin (Beyotime; #S1672), 50 ng/mL PMA (Sigma; #P1585) and Brefeldin A (BioLegend; #420601) for 4 h. Flow cytometry was conducted with FACS Celesta (BD Biosciences, USA) and analyzed with FlowJo software.

T1 sequence (Q13547 whole entry): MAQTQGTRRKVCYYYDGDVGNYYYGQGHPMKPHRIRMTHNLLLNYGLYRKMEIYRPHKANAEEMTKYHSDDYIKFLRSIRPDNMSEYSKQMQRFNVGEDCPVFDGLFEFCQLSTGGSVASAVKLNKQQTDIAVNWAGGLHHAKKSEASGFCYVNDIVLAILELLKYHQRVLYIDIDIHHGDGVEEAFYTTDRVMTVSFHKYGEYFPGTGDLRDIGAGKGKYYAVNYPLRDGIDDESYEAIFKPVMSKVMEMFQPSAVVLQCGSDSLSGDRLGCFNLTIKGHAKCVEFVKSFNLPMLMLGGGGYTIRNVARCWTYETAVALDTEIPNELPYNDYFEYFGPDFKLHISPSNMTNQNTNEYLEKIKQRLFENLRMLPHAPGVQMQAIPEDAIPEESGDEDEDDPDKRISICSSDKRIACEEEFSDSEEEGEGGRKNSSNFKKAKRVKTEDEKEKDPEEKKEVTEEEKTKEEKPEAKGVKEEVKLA
T2 sequence (Q9UBN7 whole entry): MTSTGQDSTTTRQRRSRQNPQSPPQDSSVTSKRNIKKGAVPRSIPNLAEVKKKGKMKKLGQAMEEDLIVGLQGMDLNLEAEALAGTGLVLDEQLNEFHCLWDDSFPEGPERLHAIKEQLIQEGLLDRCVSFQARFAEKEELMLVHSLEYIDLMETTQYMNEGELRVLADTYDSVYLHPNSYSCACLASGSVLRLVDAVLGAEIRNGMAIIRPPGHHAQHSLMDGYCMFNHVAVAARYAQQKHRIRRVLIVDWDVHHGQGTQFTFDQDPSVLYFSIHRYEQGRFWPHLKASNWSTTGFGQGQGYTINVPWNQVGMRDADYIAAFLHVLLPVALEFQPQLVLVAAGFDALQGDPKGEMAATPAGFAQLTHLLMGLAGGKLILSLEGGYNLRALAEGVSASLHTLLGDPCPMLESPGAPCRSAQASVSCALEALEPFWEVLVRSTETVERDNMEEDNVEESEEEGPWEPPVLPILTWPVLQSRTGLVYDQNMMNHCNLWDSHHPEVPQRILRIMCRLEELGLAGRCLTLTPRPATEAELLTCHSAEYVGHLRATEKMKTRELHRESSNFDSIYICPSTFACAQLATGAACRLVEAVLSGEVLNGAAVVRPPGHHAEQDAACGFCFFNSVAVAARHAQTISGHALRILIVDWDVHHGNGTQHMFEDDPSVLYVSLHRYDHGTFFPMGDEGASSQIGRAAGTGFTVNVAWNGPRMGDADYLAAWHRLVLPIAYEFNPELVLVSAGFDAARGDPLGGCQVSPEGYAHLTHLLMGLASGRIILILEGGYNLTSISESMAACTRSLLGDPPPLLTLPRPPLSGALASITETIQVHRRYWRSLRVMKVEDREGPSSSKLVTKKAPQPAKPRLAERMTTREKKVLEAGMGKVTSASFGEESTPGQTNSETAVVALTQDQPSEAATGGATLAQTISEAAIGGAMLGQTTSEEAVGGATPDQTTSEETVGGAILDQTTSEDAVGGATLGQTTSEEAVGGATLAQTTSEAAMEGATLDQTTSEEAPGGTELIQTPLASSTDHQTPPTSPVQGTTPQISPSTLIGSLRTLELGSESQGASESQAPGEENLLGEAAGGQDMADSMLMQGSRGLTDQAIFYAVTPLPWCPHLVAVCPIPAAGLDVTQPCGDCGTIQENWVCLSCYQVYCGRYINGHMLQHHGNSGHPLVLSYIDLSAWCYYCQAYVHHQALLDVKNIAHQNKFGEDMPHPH
T3 sequence (Q96DB2 whole entry): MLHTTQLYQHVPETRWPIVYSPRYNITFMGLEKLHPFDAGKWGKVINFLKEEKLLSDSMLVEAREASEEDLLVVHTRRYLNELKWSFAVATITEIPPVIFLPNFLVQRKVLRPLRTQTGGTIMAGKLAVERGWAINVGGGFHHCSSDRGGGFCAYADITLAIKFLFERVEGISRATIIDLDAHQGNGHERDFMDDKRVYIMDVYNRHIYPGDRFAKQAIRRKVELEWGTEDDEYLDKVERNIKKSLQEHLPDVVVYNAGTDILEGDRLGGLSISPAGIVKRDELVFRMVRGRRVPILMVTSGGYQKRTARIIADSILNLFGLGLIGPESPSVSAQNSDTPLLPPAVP

Compound: O=C(CCCCCCNC(=O)c1cc(OCCc2ccccc2)c2ccccc2n1)NO [SDFZ-8]
- IC50 (HeLa nuclear extract; mean ± SD of three determinations, read-out: HDAC inhibitory activity IC50 (HeLa extract)): 10 nM
- HDAC inhibitory activity surpassing LBH-589 (HeLa nuclear extract; versus LBH-589): 2.5 fold
- HDAC inhibitory activity surpassing SAHA (HeLa nuclear extract; versus SAHA): 28.6 fold
- IC50 (HDAC1; Class I, mean ± SD of three): 0.4 ± 0.1 nM
- HDAC1 potency superior to SAHA (HDAC1; versus SAHA): 92 fold
- IC50 (HDAC6): 3.1 ± 0.5 nM
- IC50 (HDAC11): > 10000 nM
- EdU positive cells (MDA-MB-231 cells [1]): decreased
- TUNEL green fluorescence (apoptosis) (MDA-MB-231 cells [2]): higher intensity of green fluorescence compared with SAHA
- PD-1 expression in tumor-infiltrating CD4+ T cells and CD8+ T cells [3]: did not affect
- PD-1 expression in tumor-infiltrating NK cells [3]: downregulated
- PD-L1 expression in tumor-infiltrating immune cells (DCs and macrophages) [3]: upregulation
- surface expression of MHC class II in DCs and macrophages [3]: significantly increased
- tumor-infiltrating lymphocytes (TILs) ([3]; CD4+ and CD8+ T cells): more significant increase
- M2 polarization of TAMs ([3]; CD206 marker): suppressed
- M1 polarization of TAMs ([3]; iNOS marker): robustly promoted
- PD-L1 and PD-1 expression in various immune cells in the spleen ([3]; spleen): significantly decreased
- proportion of CD4+ T cells, CD8+ T cells and NK cells in the spleen ([3]; spleen): elevated
- expression of IFN-γ and TNF-α in CD4+ T cells and CD8+ T cells ([3]; tumor): upregulation
